Like-named read-outs stand apart in the source and are kept apart here.
Assays:
[1] = molecular target: T1, human DDX3 (ATPase activity) (Homo sapiens, UniProt O00571); test: Human DDX3 ATPase activity assay (luciferase-based luminescence); format: biochemical; conditions: DDX3 ATPase activity; read-out: Ki (μM), apparent equilibrium dissociation constant for the inhibitor to the target enzyme DDX3
T1 construct: made in house; host or cells: E. coli
Protocol: ATPase activity was tested with a luciferase-based luminescence assay (Easylite-Kinase, Perkin Elmer) on 96 wells microtiter plates. Briefly, recombinant purified human DDX3 (50-100 ng) was incubated in a 15 μL total reaction volume with reaction buffer (25 mM TrisHCl pH 7.5, 5 mM MgCl2), in the presence of increasing amounts of ATP and/or different combinations of ATP and the inhibitor to be tested. Reference curves in the absence of inhibitor (giving the 100% of enzymatic activity) and in the absence of enzyme (giving the baseline), were also included in each experiment. Reading was performed with a Microbeta Trilux (Perkin Elmer) luminometer, according to the manufacturer's protocol.
ATPase reactions were performed as described, in the presence of increasing amounts of inhibitor and variable ATP concentrations. Variations of the initial velocities of the reaction as a function of ATP concentrations in the absence or presence of 4 were analyzed with the equation: […]
Variation of the % inhibition as a function of compound FE15 at different ATP concentrations were fitted to the equation for cooperative binding: […]
where Vmax is the apparent maximal rate of the reaction in the absence of the inhibitor, [I] is the variable inhibitor concentration, n is the cooperativity index and Ki(app) is the apparent inhibition constant. Comparatively, fitting was done with the same Eq. (2) where n was kept fixed at the value of 1 (non-cooperativity hypothesis). F test was used to compare the two fittings and p value was calculated.
Human recombinant DDX3 was cloned, expressed and purified as described (Franca et al. Proteins 2007, 67, 1128-37).
The anti-DDX3 activity of the compounds of the invention was evaluated by in vitro ATPase activity assay using the recombinant human DDX3 protein produced in E. coli. The potency of inhibition (Ki) for each molecule was calculated, representing the concentration of the inhibitor able to reduce the DDX3 ATPase activity by 50%

[2] = Cell viability / cytotoxicity on PBMCs; format: cell-based; conditions: human; PBMCs; Table 2 prints no unit; read-out: Cytotoxicity (CC50) PBMCs, dose required to reduce 50% cell vitality
Excerpt: (§1) Cell viability in the presence of the compounds has been determined by standard MTT assays.

[3] = tested on: PBMCs; test: Cell viability / cytotoxicity on PBMCs; format: cell-based; conditions: PBMCs CC50 / antiviral EC50
Excerpt: as §1

[4] = Cell viability / cytotoxicity on MOLT-4 cells; format: cell-based; conditions: human, MOLT-4 cells; MOLT-4; Table 2 prints no unit; read-out: Cytotoxicity (CC50) MOLT-4, dose required to reduce 50% cell vitality
Excerpt: as §1

[5] = tested on: MOLT-4; test: Cell viability / cytotoxicity on MOLT-4 cells; format: cell-based; conditions: MOLT-4 CC50 / antiviral EC50
Excerpt: as §1

[6] = Cell viability / cytotoxicity on HeLa cells; format: cell-based; conditions: human, HeLa cells (cervical cancer cell line)
Protocol: as §1
(§2) Selected compounds from Table 1 were tested against the cervical cancer HeLa cell line for antiproliferative activity. Cell viability was measured with the CellTiter viability assay (Table 2). Table 3 lists the calculated antiproliferative potencies (EC50, dose required to suppress 50% of cell viability) for a series of representative compounds of the invention.

[7] = tested on: HeLa cells; test: Cell viability / cytotoxicity on HeLa cells; format: cell-based; conditions: for Selectivity index HeLa, CC50/EC50: HeLa CC50 / antiviral EC50
Protocol: as §1, §2

[8] = tested on: HIV-1; test: Antiviral assay, HIV-1 replication in infected PBMCs (viral RNA in supernatant); format: cell-based; conditions: for EC50: Human immunodeficiency virus 1, PBMC; for viral RNA, multiple rounds of replication: PBMC, wild type HIV-1, 5 days post infection, FE15 50 μM, FE66 (35b) 5 μM
Protocol: (§3) FIG. 1. A) Antiviral activity (expressed as % of viral load with respect to the control) of compounds FE56 and FE66 at 0.3 μM and 3 μM doses against single round HIV-1 replication in HeLaCD4+ cells infected with a wild type HIV-1 strain. Measurements were performed at 72 h post infection. B) Antiviral activity of compounds FE15 and FE66 on HIV-1 replication in phytohemagglutinin-stimulated peripheral blood mononuclear cells (PBMCs) […] with HeLa CD4^+-cell culture supernatants containing wild type HIV. Compounds were tested at 50 μM (FE15) and 5 μM (FE66). The HIV-1 RNA was quantified in the cell culture supernatant after 3, and 5 days of incubation. Results are expressed as HIV RNA copies/ml. Control (white bars).
FIG. 2. Antiviral activity of DDX3 inhibitors. A) Comparison of the antiviral activity (expressed as % of viral RNA with respect to the control) on infected PBMCs of a fixed dose of selected inhibitors. Measurements were performed at 72 h post infection. Values are the means of three independent replicates. Error bars are ±SD. White bars: control without drugs; dark grey bar: positive control with AZT (0.01 μM); black bar: first generation inhibitor FE15 (50 μM); light grey bars: second generation DDX3 inhibitors FE66, 11d and 38 (3 μM). B) Dose-response curves for the inhibiton of HIV-1 replication (expressed as % of viral RNA with respect to the control) in infected PBMCs by FE15 (circles) and 38 (triangles). Measurements were performed at 72 h post infection. Values are the means of three independent replicates. Error bars are ±SD.
In detail, 0.5 μg of each HIV-1 plasmid construct was transfected into CD4 HeLa cells by using the lipofectin reagent, according to the recommendations of the manufacturer (Invitrogen, Groningen, The Netherlands). After 3 days of incubation at 37° C., the cell supernatants, which contained reconstituted viable recombinant viruses, were collected. Quantification of the newly produced recombinant strains was obtained by determination of the HIV RNA copy number in the cell culture supernatants. Successively, 10 ml of transfected HeLa CD4^+-cell culture supernatants containing wild-type, and mutated recombinant HIV strain […], was used to infect aliquots of 10×10^6 phytohemagglutinin-stimulated peripheral blood mononuclear cells (PBMCs) from HIV-seronegative blood donors. After 4 h of incubation, supernatants were removed and infected PBMCs were incubated at 37° C. in 10 ml of RPMI 1640 medium (Eurobio, Les Ulis Cedex B, France) supplemented with 20% fetal calf serum (Life Technologies, Ltd., Paisley, Scotland), 2 mM l-glutamine, 100 U of penicillin per ml, 100 μg of streptomycin per ml, 10% interleukin-2 (ZeptoMetrix Co., Buffalo, N.Y.), 5 μg of hydrocortisone (Sigma Chemical Co.) per ml and with fourfold dilutions of antiretroviral drugs. No-drug controls for each drug dilution were included in each assay. After 3, 5 and 7 days of incubation the HIV-1 RNA in the cell culture supernatant was quantified. Recombinant HIV-1 strains from treatment-naive patients and multidrug resistance-associated changes were assayed in parallel. The degree of inhibition of viral replication was measured by determining the HIV-1 RNA level in the supernatants of cell cultures and was expressed as the fold increase in the 50% inhibitory concentrations (IC50s) for resistant recombinant HIV-1 variants compared with the IC50s for the wild-type recombinant variant. Each test was performed in triplicate.

[9] = tested on: wild type HIV-1 strain; test: HIV-1 single round replication in HeLaCD4+ cells; format: cell-based; conditions: wild type HIV-1, 0.3 μM and 3 μM doses, 72 h post infection
Protocol: as §3
Selected compounds from Table 1 were tested against HIV-1 replication in two different model systems.

[10] = tested on: cervical cancer HeLa cell line; test: Antiproliferative activity against HeLa cells (CellTiter viability assay); format: cell-based; conditions: Homo sapiens
Protocol: as §2

[11] = HeLa, Table 2 prints no unit, text gives μM, read-out: Cytotoxicity (CC50) HeLa, dose required to reduce 50% cell vitality
[12] = 72 h, read-out: EC50, anti-HIV activity
[13] = read-out: Antiviral activity, dose required to reduce 50% viral proliferation (measured as viral RNA load)

T1 sequence (O00571 whole entry): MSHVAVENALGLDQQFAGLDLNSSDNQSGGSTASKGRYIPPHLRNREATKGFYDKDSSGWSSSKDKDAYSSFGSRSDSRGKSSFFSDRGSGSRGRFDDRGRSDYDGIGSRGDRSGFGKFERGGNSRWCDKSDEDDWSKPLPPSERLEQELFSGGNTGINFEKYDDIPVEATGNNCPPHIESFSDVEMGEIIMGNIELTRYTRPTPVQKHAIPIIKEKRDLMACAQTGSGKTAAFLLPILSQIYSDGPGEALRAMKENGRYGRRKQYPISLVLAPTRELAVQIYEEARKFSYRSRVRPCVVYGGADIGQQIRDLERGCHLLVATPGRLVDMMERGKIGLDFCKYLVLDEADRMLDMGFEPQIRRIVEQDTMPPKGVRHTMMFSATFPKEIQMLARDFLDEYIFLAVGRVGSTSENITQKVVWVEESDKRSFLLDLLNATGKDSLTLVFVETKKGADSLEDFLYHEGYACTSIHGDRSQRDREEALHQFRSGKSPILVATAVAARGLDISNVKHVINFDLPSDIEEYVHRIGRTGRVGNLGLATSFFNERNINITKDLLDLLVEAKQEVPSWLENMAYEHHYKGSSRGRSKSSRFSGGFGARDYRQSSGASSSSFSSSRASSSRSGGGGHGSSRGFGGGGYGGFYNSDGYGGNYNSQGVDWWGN

Structure (SMILES) | Ki [1] | melting point | CC50 [2] | Selectivity index PBMCs, CC50/EC50 [3] | CC50 [4] | Selectivity index MOLT-4, CC50/EC50 [5] | CC50 ([6]; read-out: CC50, cytotoxicity on HeLa cells) | Selectivity index HeLa, CC50/EC50 [7] | CC50 [7, 11] | reduction of viral load compared with 11d and 38 at 3 μM ([8]; HIV-1 infected PBMCs, compound at 50 μM, 72 h post infection) | EC50 [8, 12] | EC50 [8, 13] | viral RNA, multiple rounds of replication [8] | viral load (viral RNA copies), single-round replication [9] | EC50 ([10]; 48 hours, read-out: EC50 (μM) 48 hours, dose required to suppress 50% of cell viability) | EC50 ([10]; 72 hours, read-out: EC50 (μM) 72 hours, dose required to suppress 50% of cell viability) | CC50 [6, 11]
O=C(CCN1C(=O)/C(=C/c2cccc(Br)c2)SC1=S)Nc1ccccc1O [FE-15, (Z)-3-(5-(3-Bromobenzylidene)-4-oxo-2-thioxothiazolidin-3-yl)-N-(2-hydroxyphenyl)propanamide] | 4.5 µM | 222 to 224 °C | > 150 µM | 1.8 | > 200 µM | 2.4 | > 200 µM | 2.4 | > 200 µM | comparable effects | 83 µM | 83 ± 7 µM | significant reduction of viral RNA | – | – | – | –
O=C1Nc2ccccc2/C1=N/Nc1nc(Nc2ccccc2)nc(Nc2ccccc2)n1 [FE-56] | 0.4 µM | – | – | – | – | – | – | – | – | – | – | – | – | dose-dependent reduction of viral load | – | – | –
O=C(CCN1C(=O)/C(=C/c2cccc(F)c2)SC1=S)Nc1ccccc1O [Compound 35b, 3-((Z)-5-(3-Fluorobenzylidene)-4-oxo-2-thioxothiazolidin-3-yl)-N-(2-hydroxyphenyl) propanamide] | 0.3 µM | 210 to 211 °C | 50 ± 5 µM | 6.7 | 50 ± 10 µM | 6.7 | – | 6.7 | – | – | 7.5 µM | 7.5 ± 0.7 µM | significant reduction of viral RNA | dose-dependent reduction of viral load | 50 µM | 10 µM | 50 ± 5 µM

From patent publication US20120202814A1, “COMPOUNDS WITH DDX3 INHIBITORY ACTIVITY AND USES THEREOF” (UNIVERSITÀ DEGLI STUDI DI SIENA, priority 2009, published 2012)
